According to US20170296456A1, “PRODUCTS AND METHODS FOR TREATING PERIORBITAL DYSCHROMIA” (The Procter & Gamble Company, priority 2016, published 2017):

System: B16-F1 mouse melanoma cell line
Test: B16 melanin synthesis inhibition assay
Assay type: cell-based
Settings: B16-F1 cells, OD 410 nm
Protocol: In this example, a commercially available B16-F1 mouse melanoma cell line from American Tissue Culture Collection, Virginia, USA was employed in a conventional melanin synthesis inhibition assay. The cell culture medium used in the assay is 500 mL of Dulbecco's Modified Eagle's Medium (DMEM), 50 mL Fetal Bovine Serum (FBS), and 5 mL of penicillin-streptomycin liquid. B16-F1 cells that are cultured in this medium and grown to greater than 90% confluency will synthesize melanin. While not intending to be bound by any theory, it is hypothesized that the melanin synthesis is stimulated by the culture medium and/or stress induced by growth to a high confluency. […] Equipment used in the assay include a CO2 incubator, such as a Forma Series Model 3110 by Therma Scientific, Massachusetts, USA; a hemocytometer, such as a Bright Line model by Hauser Scientific, Pennsylvania, USA; and a UV-Visible Spectrum Plate Reader, such as a SpectraMax250 from Molecular Devices, California, USA. […] Day 3: The cells from the T-150 flask are trypsinized, and the concentration of cells is determined using the hemacytometer. […] Read the 96 well plate using the UV-Vis Plate Reader at 410 nm to optically measure the amount of melanin produced between wells that are treated with the fava bean extract and control wells that are not. […] The concentration of test agent needed to provide the IC 50 is recorded. […]

Structure (SMILES)	Concentration Needed for IC 50 [v/v]
Oc1ccc(OC2CCCCO2)cc1 (centres unmarked) [Deoxyarbutin]	0.008
O=c1cc(CO)occ1O [Kojic Acid]	0.01
